From patent US20250115557A1, “TOTAL SYNTHESES OF SELENONEINE, ISO-SELENONEINE, AND ISOMERS” (UNIVERSITÉ LAVAL, priority 2022, published 2025)
Where two headings read alike, the source gives them in different places.

Columns and labels:
[1] = S at C-5 (ovothiols) versus S at C-2 (ergothioneine); cited from earlier work
[2] = test system: human erythroid K562 cells; experiment: Protection against MeHgCl induced cytotoxicity, trypan blue viability exclusion test; type: cell-based; conditions: for Viability of cells exposed to MeHgCl: 5 μM MeHgCl overnight (18h), protective agent 2.5-150 μM, 4 h pre-incubation, FIG. 4
Description: (§1) Since selenoneine is the analog of the well-known natural antioxidant and cytoprotectant ergothioneine, its capacity as an antioxidant and cytoprotectant was assessed. To that effect, the capacity of selenoneine to protect cells against the cytotoxic effects induced by t-butyl hydroperoxide (t-BuOOH) and methylmercury chloride (MeHgCl) was assessed. Human erythroid K562 cells expressing the ergothioneine transporter (OCTN1) were exposed to the IC50 values of t-BuOOH and MeHgCl respectively, in the presence of increasing concentrations of either selenoneine or ergothioneine. The cell viability was subsequently assessed using the trypan blue viability exclusion test.^[20]
(§2) In vitro protection assays against either methylmercury chloride (MeHgCl) or tert-butyl hydroperoxide (t-BuOOH) were conducted with the K562-S human leukemia cell line (REF #CRL-3343™) obtained from the American Type Culture Collection (ATCC). Cells were cultured in Gibco RPMI 1640 complete growth medium with L-Glutamine (REF #31800-105), NaHCO3 (2 g/L), 10% FBS (REF #080-750), 2% antibiotic-antimycotic from Gibco (REF #15240-062), pH 7.4, and maintained at 37° C. in a 5% CO2 incubator and protected from light.
An uptake induction step, in a saline buffer containing 125 mM of NaCl; 25 mM of HEPES-NaOH (pH 7.4); 5.6 mM of D(+)-glucose; 4.8 mM KCl; 1.2 mM of KH2PO4; 1.2 mM of CaCl2; and 1.2 mM of MgSO4, was performed prior to adding selenoneine or ergothioneine to the cell medium.^[22,23] Cells were resuspended in triplicate and pre-incubated in the saline buffer at a density of 2×10^6 cells/mL for 20 minutes at 37° C. under slight agitation. Cells were then incubated during 4 hours in the same buffer and conditions but supplemented with the protective agent of interest—either ergothioneine or selenoneine—in the presence of 0.15 mM of reduced glutathione (GSH). Concentrations of protective agents, either ergothioneine or selenoneine, used for these experiments were 2.5, 5, 25, 50, 100, and 150 μM (FIGS. 3 and 4). Cells were then washed twice in cold phosphate-buffered saline (PBS) and resuspended in complete RPMI growth medium and divided into two groups at a density of 1×10^6 cells/mL. One group of cells remained untreated (control group) while the other group was treated with either 830 μM of t-BuOOH, or 5 μM of MeHgCl. These concentrations were determined to decrease cell survival by 50% in preliminary experiments (IC50 values). Cells were then incubated at 37° C. under slight agitation over a period of one (1) hour in the case of t-BuOOH, or overnight (18h) for MeHgCl. The cells were then washed twice in cold PBS before being resuspended in complete RPMI growth medium at a density of 5×10^5 cells/mL. The trypan blue viability exclusion test was then conducted using a Hausser Scientific™ Bright-Line™ Phase Hemacytometer. Viable cells (%)=[total number of viable cells per mL of aliquot/total number of cells per mL of aliquot]×100.^[20] Results are expressed as the mean±standard error of the mean of triplicates. These experiments were repeated twice, and similar results were obtained.

[3] = test system: human erythroid K562 cells; type: cell-based; conditions: for Viability of cells exposed to t-BuOOH: 830 μM t-BuOOH 1 h, protective agent 2.5-150 μM, 4 h pre-incubation, FIG. 3
Description: as §1, §2
(§3) An uptake induction step, in a saline buffer containing 125 mM of NaCl; 25 mM of HEPES-NaOH (pH 7.4); 5.6 mM of D(+)-glucose; 4.8 mM KCl; 1.2 mM of KH2PO4; 1.2 mM of CaCl2; and 1.2 mM of MgSO4, was performed prior to adding selenoneine or ergothioneine to the cell medium.^[22,23] Cells were resuspended in triplicate and pre-incubated in the saline buffer at a density of 2×10^6 cells/mL for 20 minutes at 37° C. under slight agitation. Cells were then incubated during 4 hours in the same buffer and conditions but supplemented with the protective agent of interest—either ergothioneine or selenoneine—in the presence of 0.15 mM of reduced glutathione (GSH). Concentrations of protective agents, either ergothioneine or selenoneine, used for these experiments were 2.5, 5, 25, 50, 100, and 150 μM (FIGS. 3 and 4). […] Results are expressed as the mean±standard error of the mean of triplicates. […]

[4] = test system: K562-S human leukemia cell line; experiment: Preliminary experiments: concentration of toxicant decreasing cell survival by 50%; type: cell-based; conditions: K562 cells
Description: as §2
as §3, with “(GSH).” for “(GSH). Concentrations of protective agents, either ergothioneine or selenoneine, used for these experiments were 2.5, 5, 25, 50, 100, and 150 μM (FIGS. 3 and 4).”

C[N+](C)(C)[C@@H](Cc1c[nH]c(=S)[nH]1)C(=O)[O-] [ergothioneine]
pKa value [1]: 8.7
Viability of cells exposed to MeHgCl [2]: increased with increasing concentrations
Cell viability versus control groups at concentrations of 150 μM or higher ([2]; 5 μM MeHgCl, K562 cells, protective agent 150 μM or higher): did not result in cell viabilities comparable to those of the control groups
Viability of cells exposed to t-BuOOH [3]: increased with increasing concentrations

CC(C)(C)OO [t-BuOOH, t-butyl hydroperoxide]
IC50 ([4]; Homo sapiens): 830 µM

[CH3][Hg][Cl] [MeHgCl, methylmercury chloride]
IC50 [4]: 5 µM

C[N+](C)(C)[C@@H](Cc1c[nH]c(=[Se])[nH]1)C(=O)[O-] [selenoneine, (S)-3-(2-selenoxo-2,3-dihydro-1H-imidazol-4-yl)-2-(trimethylammonio) propanoate]
Viability of cells exposed to MeHgCl [2]: increased with increasing concentrations
Concentration resulting in cell viabilities comparable to those of the control groups ([2]; 5 μM MeHgCl, K562 cells): ≥ 100 µM
Protective effect against MeHgCl induced cytotoxicity, comparison ([2]; 5 μM MeHgCl, K562 cells): greater protective effect relative to ergothioneine
Viability of cells exposed to t-BuOOH [3]: increased with increasing concentrations
Concentration resulting in cell viabilities comparable to those of the control groups ([3]; 830 μM t-BuOOH, K562 cells): ≥ 100 µM
